Consider 1 molecule from ChEMBL document CHEMBL6096680, “Development of PRC1 Inhibitors Employing Fragment-Based Approach and NMR-Guided Optimization” (J Med Chem, 2025).

For assay [1], the species on record is Homo sapiens. Nature of the assay: Binding affinity to 15N-labeled RING1B (10 to 116 residues)/BMI1 (1 to 104 residues) (unknown origin) extracted from Escherichia coli BL21 (DE3) cells assessed as sum of A79, G83 and T89 chemical shift perturbations at 100 uM by NMR binding analysis.
Assay [2] is filed under the species Homo sapiens. Nature of the assay: Binding affinity to 15N-labeled RING1B (10 to 116 residues)/BMI1 (1 to 104 residues) (unknown origin) extracted from Escherichia coli BL21 (DE3) cells assessed as sum of A79, G83 and T89 chemical shift perturbations at 200 uM by NMR binding analysis.
Assay [3] is filed under the species Homo sapiens. Nature of the assay: Binding affinity to 15N-labeled RING1B (10 to 116 residues)/BMI1 (1 to 104 residues) (unknown origin) extracted from Escherichia coli BL21 (DE3) cells assessed as ratio of chemical shift perturbations at 1:2 compound concentration ration by NMR binding analysis.
Assay [4] can be described thus: Binding affinity to RING1B (10 to 116 residues)/BMI1 (1 to 104 residues) (unknown origin) extracted from Escherichia coli BL21 (DE3) cells assessed as dissociation constant by ITC analysis. Set-up: species or system Homo sapiens. Background: In ITC the heat of successive injections is recorded.
Assay [5] in a line: Inhibition of 6His-tagged RING1B (10 to 116 residues)/BMI1 (1 to 104 residues) (unknown origin) extracted from Escherichia coli BL21 (DE3) cells preincubated with compound for 1 hrs followed by 3-(1-(4,26-dioxo-30-((3aS,4S,6aR)-2-oxohexahydro-1H-thieno[3,4-d]imidazol-4-yl)-7,10,13,16,19,22-hexaoxa-3,25-diazatriacontyl)-6-methoxy-1H-indol-4-yl)-5-(6-fluoro-1H-indol-4-yl)-4-isopropyl-1H-pyrrole-2-carboxylic acid addition and measured after 1 hrs by Alphascreen competition assay. Set-up: species or system Homo sapiens. (In general: In Alpha technology, singlet oxygen from a donor bead excites a nearby acceptor bead.)

Assay [6] can be described thus: Inhibition of RING1B (10 to 116 residues)-BMI1 (1 to 104 residues) (unknown origin) extracted from Escherichia coli BL21 (DE3) cells using HeLa nucleosome as substrate assessed as reduction in reduction in H2AK119 ubiquitination preincubated with compound for 1 hrs followed by flag-tagged ubiquitin and substrate addition and measured after 1 hrs by Western blot analysis. Set-up: species or system Homo sapiens. (In general: In western blotting, separated proteins are transferred to a membrane and probed.)

Assay [7] is described as follows: Inhibition of 6His-tagged RING1A (7 to 113 residues)-BMI1 (1 to 104 residues) (unknown origin) extracted from Escherichia coli BL21 (DE3) cells preincubated with compound for 1 hrs followed by 3-(1-(4,26-dioxo-30-((3aS,4S,6aR)-2-oxohexahydro-1H-thieno[3,4-d]imidazol-4-yl)-7,10,13,16,19,22-hexaoxa-3,25-diazatriacontyl)-6-methoxy-1H-indol-4-yl)-5-(6-fluoro-1H-indol-4-yl)-4-isopropyl-1H-pyrrole-2-carboxylic acid addition and measured after 1 hrs by Alphascreen competition assay. The arrangement: species or system Homo sapiens.

The species entered for assay [8] is Homo sapiens. Nature of the assay: Binding affinity to 15N-labeled RING1A (7 to 113 residues)/BMI1 (1 to 104 residues) (unknown origin) extracted from Escherichia coli BL21 (DE3) cells assessed as chemical shift perturbation by 1H-15N HSQC spectra based NMR titration analysis. The conditions noted are these: dose 30-120 µM.
For assay [9], the species on record is Homo sapiens. Nature of the assay: Binding affinity to 15N-labeled RING1B (10 to 116 residues)/BMI1 (1 to 104 residues) (unknown origin) extracted from Escherichia coli BL21 (DE3) cells assessed as chemical shift perturbation by 1H-15N HSQC spectra based NMR titration analysis. The conditions noted are these: dose 30-120 µM.
The species entered for assay [10] is Homo sapiens. Nature of the assay: Binding affinity to 15N-labeled 6His-tagged RING1B (10 to 116 residues)/PCGF1 (30 to 138 residues) (unknown origin) assessed as chemical shift perturbation by 1H-15N HSQC spectra based NMR titration analysis. The conditions noted are these: dose 30-120 µM.
Assay [11] is described as follows: Binding affinity to RING1A (7 to 113 residues)/BMI1 (1 to 104 residues) (unknown origin) extracted from Escherichia coli BL21 (DE3) cells assessed as dissociation constant by ITC analysis. Set-up: species or system Homo sapiens.
A short description of assay [12]: Binding affinity to RING1B (10 to 116 residues)/PCGF1 (30 to 138 residues) (unknown origin) assessed as dissociation constant by ITC analysis. The arrangement: species or system Homo sapiens.
Assay [13] in a line: Inhibition of RING1A (7 to 113 residues)/BMI1 (1 to 104 residues) (unknown origin) extracted from Escherichia coli BL21 (DE3) cells using HeLa nucleosome as substrate assessed as reduction in reduction in H2AK119 ubiquitination preincubated with compound for 1 hrs followed by flag-tagged ubiquitin and substrate addition and measured after 1 hrs by Western blot analysis. Set-up: species or system Homo sapiens.

A short description of assay [14]: Inhibition of RING1B (10 to 116 residues)/PCGF1 (30 to 138 residues)(unknown origin) using HeLa nucleosome as substrate assessed as reduction in reduction in H2AK119 ubiquitination preincubated with compound for 1 hrs followed by flag-tagged ubiquitin and substrate addition and measured after 1 hrs by Western blot analysis. Set-up: species or system Homo sapiens.

Assay [15] has as its system TEX. Nature of the assay: Inhibition of PRC1 in human TEX cells assessed as decrease in global H2Aub level by measuring fold change at 3.1 uM incubated for 4 days by Western blot analysis (reference value: 1). The conditions noted are these: time 4.0 day. The assay is classed as cell-based.
The subject of assay [16] is TEX. Nature of the assay: Inhibition of PRC1 in human TEX cells assessed as decrease in global H2Aub level by measuring fold change at 6.2 uM incubated for 4 days by Western blot analysis (reference value: 1). The assay is classed as cell-based. The conditions noted are these: time 4.0 day.
In assay [17] the test system is TEX. Nature of the assay: Inhibition of PRC1 in human TEX cells assessed as decrease in global H2Aub level by measuring fold change at 12.5 uM incubated for 4 days by Western blot analysis (reference value: 1). The assay is classed as cell-based. The conditions noted are these: time 4.0 day.
In assay [18] the test system is TEX. Nature of the assay: Inhibition of PRC1 in human TEX cells assessed as decrease in global H2Aub level by measuring fold change at 25 uM incubated for 4 days by Western blot analysis (reference value: 1). The class given is cell-based. The conditions noted are these: time 4.0 day.
Assay [19] has as its system TEX. Nature of the assay: Downregulation of CD34 gene expression in human TEX cells at 6.2 to 50 uM incubated for 4 days by RT-qPCR analysis. The class given is functional, cell-based. The conditions noted are these: dose 6.2-50 µM, time 4.0 day.
The subject of assay [20] is TEX. Nature of the assay: Upregulation of CEBPalpha gene expression in human TEX cells at 6.2 to 50 uM incubated for 4 days by RT-qPCR analysis. The class given is functional, cell-based. The conditions noted are these: dose 6.2-50 µM, time 4.0 day.

The term Kd denotes a measure of binding affinity in units of concentration. Usually IC50 stands for the point on the concentration scale where inhibition reaches its midpoint.

SMILES strings stand for the structures. Activity calls are given as the source filed them. No cut-off for these calls is given here.

With `CC(C)c1c(-c2cc(F)cc3[nH]ccc23)[nH]c(C(=O)O)c1-c1c(Cl)ccc2[nH]ccc12`, the Activity in the assay filed under Homo sapiens [1] was 248 Hz; in the assay listed under Homo sapiens [2], 299 Hz; in the assay filed under Homo sapiens [8], “Dose-dependent-effect”; in the assay filed under Homo sapiens [9], “Dose-dependent-effect”; in the assay filed under Homo sapiens [10] it was “Dose-dependent-effect”. Further, the Ratio in the assay filed under Homo sapiens [3] is 0.83. Moreover, the figures for the Kd in assay [4], in assay [11] and in assay [12] were 2 µM, 1.7 µM and 1.7 µM, respectively. For the same molecule, the half-inhibitory concentration (IC50) in assay [5] worked out at 2.3 µM; in assay [6] it was 2.8 µM; in [7] it was 2.4 µM; in assay [13], 2.6 µM; in assay [14] it was 1.8 µM. Besides, the fold change (FC) in the assay with TEX [15] is 1.7; with TEX [16], 0.9; in the assay with TEX [17] it was 0.88; in the assay with TEX [18], 0.17. Further, the result with TEX [19] and in the assay with TEX [20] was Active.
